Measurements from PMC10785800, “Molecular Basis for Inhibition of Heparanases and β-Glucuronidases by Siastatin B” (Journal of the American Chemical Society, 2023).
Read-outs that look alike come from different tables or passages of the source.

Legend:
[1] = target: T1, E. coli β-glucuronidase (EcGusB) (Escherichia coli, UniProt P05804); assay: Inhibition of EcGusB hydrolysis of 4-methylumbelliferyl glucuronide (MU-GlcUA); assay type: biochemical; settings: for Ki: fluorogenic substrate MU-GlcUA, McIllvane buffer pH 5.0, competitive inhibition model
T1 construct: made in house; host or cells: E. coli BL21 Gold (DE3)
T1 sequence (P05804 whole entry): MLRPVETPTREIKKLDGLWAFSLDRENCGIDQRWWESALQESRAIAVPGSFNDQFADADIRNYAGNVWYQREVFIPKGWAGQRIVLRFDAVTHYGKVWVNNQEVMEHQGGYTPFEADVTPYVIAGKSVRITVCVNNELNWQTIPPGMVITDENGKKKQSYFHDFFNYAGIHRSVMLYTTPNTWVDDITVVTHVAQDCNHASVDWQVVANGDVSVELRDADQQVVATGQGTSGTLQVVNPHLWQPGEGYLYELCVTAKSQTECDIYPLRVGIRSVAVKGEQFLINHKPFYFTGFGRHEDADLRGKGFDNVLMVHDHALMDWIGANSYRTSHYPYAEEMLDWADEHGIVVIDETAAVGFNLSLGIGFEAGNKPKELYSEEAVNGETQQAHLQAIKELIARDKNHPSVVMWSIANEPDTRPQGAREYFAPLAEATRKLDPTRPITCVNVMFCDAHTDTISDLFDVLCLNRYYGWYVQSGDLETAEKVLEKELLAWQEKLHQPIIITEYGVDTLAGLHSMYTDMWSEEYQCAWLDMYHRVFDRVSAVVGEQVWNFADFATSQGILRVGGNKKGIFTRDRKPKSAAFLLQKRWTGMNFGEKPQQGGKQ
From the text: (§1) To assess the potency of the synthesized 1-N-iminosugars, we first turned to the exo-acting β-glucuronidases AcGH79 and EcGusB, whose activity can be readily monitored with the use of the fluorogenic substrate 4-methylumbelliferyl glucuronide (MU-GlcUA). As these β-glucuronidases belong to different families–AcGH79 to the GH79 family and EcGusB to the GH2 family[46]—assessing inhibition with these enzymes also gives some insights into the applicability of these molecules. All four synthesized compounds (8–11) are able to inhibit both enzymes (see Table 1, Figures S5 and S6).
(§2) Figure S6. Inhibition kinetics of EcGusB treated with synthetic inhibitors. The inhibition constants for EcGusB treated with A) 11, B) 9, C) 10, and D) 8 were determined. Michaelis-Menten saturation curves were determined in the presence of various concentration of inhibitor (left panel). These curves were fit to a hyperbolic equation, resulting in a Michaelis constant (KM). The KM values were then plotted against the inhibitor concentration (right panel). A linear fit of this plot was then used to determine the inhibition constant (KI).
(§3) (1 picture or pasted object on this page, not shown here)
(§4) Initial rates were determined for AcGH79 and EcGusB hydrolysis of 4-methylumbelliferyl glucuronide in the presence of varying concentrations either commercial or HPLC purified siastatin B to determine inhibitory IC50 concentrations. Reactions contained 20 mM NaCl, 1 % BSA, 60 mM McIllvane Buffer pH 5.0 and 500 µM 4-methylumbelliferyl glucuronide and 0 – 400 µM siastatin B. Assays were initiated by the addition of enzyme to a final concentration of 2 nM. Fluorescence was monitored using a Clariostar plate reader using an excitation wavelength of 365 nm and emission wavelength of 450 nm.
(§5) Assays were performed in quadruplicate and the variation of initial rates with inhibitor concentration […]
(§6) were fit to the Hill equation: with the software program Origin 2019. A=Amax( kn+ [I]n) To determine inhibition constant (Ki) values, Michaelis-Menten parameters were determined for AcGH79 and EcGusB hydrolysis of 4-methylumbelliferyl glucuronide in reactions containing one of the inhibitors 8, 9, 10 or 11. Assays were initiated by the addition of enzyme to the assay mix containing 0-1 mM 4-methylumbelliferyl glucuronide, 20 mM NaCl, 0.1 % BSA, 60 mM McIllvane Buffer pH
(§7) 5.0. Fluorescence was monitored as above. Michaelis constants were determined for at least 3 different inhibitor concentrations for each different inhibitor. Inhibition constants were calculated according to a competitive inhibition model for both inhibitors using the equation : . All K= K(1+ [I]) […]
(§8) kinetic parameters were fit with the software program Origin 2019. […]
(§9) The Journal of Organic Chemistry 2005, 70, 5207-5214.
(§10) Nat Struct Mol Biol 2015, 22 (12), 1016-1022.
(§11) (7) Winter, G. xia2: an expert system for macromolecular crystallography data reduction. Journal of […]

[2] = target: T2, Acidobacterium capsulatum β-glucuronidase (AcGH79) (Acidobacterium capsulatum, UniProt C1F2K5); assay: Inhibition of AcGH79 hydrolysis of 4-methylumbelliferyl glucuronide (MU-GlcUA); assay type: biochemical
T2 sequence (C1F2K5 1-475): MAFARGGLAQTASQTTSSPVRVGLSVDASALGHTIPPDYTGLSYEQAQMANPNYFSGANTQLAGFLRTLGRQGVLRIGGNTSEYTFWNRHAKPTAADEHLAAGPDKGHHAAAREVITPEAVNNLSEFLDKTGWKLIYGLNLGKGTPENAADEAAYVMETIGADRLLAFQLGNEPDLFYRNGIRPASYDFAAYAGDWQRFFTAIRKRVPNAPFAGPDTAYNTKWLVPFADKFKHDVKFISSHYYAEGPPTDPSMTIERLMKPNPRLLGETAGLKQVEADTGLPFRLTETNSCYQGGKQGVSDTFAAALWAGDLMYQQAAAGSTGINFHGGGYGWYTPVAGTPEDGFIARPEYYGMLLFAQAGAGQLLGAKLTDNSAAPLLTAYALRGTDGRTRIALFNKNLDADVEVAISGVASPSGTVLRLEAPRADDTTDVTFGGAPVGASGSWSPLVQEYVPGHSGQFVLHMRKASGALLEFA
From the text: as §1
as §2, with “S5.” for “S6.”, “AcGH79” for “EcGusB”
as §4, §5, §6, §7, §8, §9, §10, §11

[3] = target: T3, human β-glucuronidase (HsGUSB) (Homo sapiens, UniProt P08236); assay: Competitive activity-based protein profiling (cABPP) of GUSB in platelet lysate; assay type: biochemical; settings: cABPP with ABP VB-A69 100 nM, pH 5.0, 1 h preincubation at 37°C
T3 construct: endogenous in cells; host or cells: human platelets (lysate)
T3 sequence (P08236 23-651): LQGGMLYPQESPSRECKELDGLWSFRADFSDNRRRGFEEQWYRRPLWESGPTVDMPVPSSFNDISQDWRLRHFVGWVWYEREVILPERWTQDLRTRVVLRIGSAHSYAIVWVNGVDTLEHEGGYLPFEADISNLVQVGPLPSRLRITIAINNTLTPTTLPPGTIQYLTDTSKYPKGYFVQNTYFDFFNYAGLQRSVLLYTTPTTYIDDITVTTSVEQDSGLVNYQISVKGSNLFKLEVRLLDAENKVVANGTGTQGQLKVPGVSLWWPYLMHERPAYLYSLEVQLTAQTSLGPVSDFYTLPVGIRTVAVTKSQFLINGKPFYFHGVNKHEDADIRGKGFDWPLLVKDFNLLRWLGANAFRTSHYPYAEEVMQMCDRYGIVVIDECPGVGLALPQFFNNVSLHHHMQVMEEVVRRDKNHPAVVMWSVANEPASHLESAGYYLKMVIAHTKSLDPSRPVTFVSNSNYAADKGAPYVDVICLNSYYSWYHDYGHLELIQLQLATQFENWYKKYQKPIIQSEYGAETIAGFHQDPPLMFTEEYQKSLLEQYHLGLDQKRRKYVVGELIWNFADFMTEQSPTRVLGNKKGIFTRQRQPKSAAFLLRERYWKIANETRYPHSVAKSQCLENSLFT
From the text: (§12) We next examined whether the synthetic 1-N-iminosugars could inhibit HPSE and human β-glucuronidase. To assess the potency of these inhibitors, we used a competitive activity-based protein profiling (cABPP) assay, that measures the ability of the inhibitor to reduce fluorescent labeling of an enzyme by a fluorescent pan-β-glucuronidase activity-based probe (ABP).[16],[34] Using this cABPP assay, we can simultaneously monitor the inhibition of HPSE and GUSB that are both present in platelet lysates.[6],[29] […] The IC50’s determined for HPSE were greater than that observed for GUSB, which is anticipated for monomer-like inhibitors acting on multisubsite endo-acting enzymes. […] However, the trend that inhibition was improved with the removal of the 3-geminal diol was maintained for both GUSB and HPSE.
(§13) Figure 3 Competitive ABPP of platelet lysate with synthetic iminosugars. Iminosugars 8–11 inhibit both GusB and HPSE present in human platelet lysate. Quantitated fluorescence plots used to determine IC50 values are available in Figure S7. Full length gel images and replicates are available in Figure S8, and Coomassie stained gels are available in Figure S9.
(§14) Figure S7. Inhibition of HPSE and GusB in human platelet lysates by inhibitors 8, 9, 10 and 11. A […]
(§15) normalized quantitated band intensities for HPSE against inhibitor concentration. […]
(§16) Xray diffraction data were collected at 100 K at beamlines i03, i04 and i04-1 of the Diamond Light Source UK. Reflections were autoprocessed using the XIA2 pipeline7. Complexes were solved by directly refining against their unliganded structures where solved using molecular replacement with PHASER4 (search model PDB accessions 5E98 (HPSE), 3VNY (AcGH79), 3K46 (EcGUSB)). Solved […]
(§17) refinement using COOT8 and REFMAC59 respectively. Ligand coordinates were built using jLigand10.
(§18) Diagrams were generated using PyMOL (Delano Scientific). cABPP Labelling experiments:
(§19) ABP labelling reactions were carried out in McIlvaine buffer (pH 5.0), 300 mM NaCl. Labeling reactions were initiated by the addition of ABP VB-A69 to a final concentration of 100 nM, before incubation for 30 min at 37°C with shaking. Following labeling, samples were denatured by boiling with Laemmli buffer for 5 min and resolved by SDS-PAGE. […]
(§20) For competitive ABPP (cABPP) experiments, platelet lysates were preincubated with inhibitor (or buffer only control) in McIlvaine buffer (pH 5.0), 300 mM NaCl for 1 h at 37°C with shaking. […] For quantitative measurements, fluorescently labeled the band intensities were calculated using Imagequant (Cytiva), and normalized to the corresponding band in the inhibitor free control lane. IC50 concentrations were determined by fitting data to the Hill equation: […]

[4] = target: T4, human heparanase (HPSE) (Homo sapiens, UniProt Q9Y251); assay: Competitive activity-based protein profiling (cABPP) of HPSE in platelet lysate; assay type: biochemical; settings: cABPP with ABP VB-A69 100 nM, pH 5.0, 1 h preincubation at 37°C
T4 construct: endogenous in cells; host or cells: human platelets (lysate)
T4 sequence (Q9Y251 36-543): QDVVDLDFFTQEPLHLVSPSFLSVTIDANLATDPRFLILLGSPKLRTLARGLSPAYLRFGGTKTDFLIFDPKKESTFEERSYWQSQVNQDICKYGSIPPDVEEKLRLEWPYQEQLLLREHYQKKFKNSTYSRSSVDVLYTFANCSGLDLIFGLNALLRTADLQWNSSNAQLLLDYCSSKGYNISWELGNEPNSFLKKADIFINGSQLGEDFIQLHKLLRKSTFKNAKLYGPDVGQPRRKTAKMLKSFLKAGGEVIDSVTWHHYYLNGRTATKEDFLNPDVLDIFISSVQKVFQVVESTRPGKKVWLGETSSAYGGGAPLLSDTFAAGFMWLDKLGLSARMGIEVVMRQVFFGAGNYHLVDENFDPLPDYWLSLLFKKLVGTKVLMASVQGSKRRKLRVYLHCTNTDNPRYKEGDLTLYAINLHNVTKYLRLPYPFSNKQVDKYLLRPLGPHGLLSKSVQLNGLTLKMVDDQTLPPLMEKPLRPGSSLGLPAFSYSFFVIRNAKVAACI
From the text: as §12, §13, §14, §15, §16, §17, §18, §19, §20

[5] = Stability of siastatin B by 1H NMR; assay type: physicochemical
Description: To determine how siastatin B inhibits β-glucuronidases, we first sought to determine whether inhibition was due to the presence of contaminants from either the commercial material or degradation products resulting from prolonged incubation in an aqueous solution or in the presence of a β-glucuronidase.
Supplemental Figures and Tables
Figure S1. Stability of siastatin B. A) 1H NMR experiment showing siastatin B (2 mg) in D2O phosphate buffer (50 mM, 300 mM NaCl, pH 5.0), taken for two different time points (t=0 min and after 18 h). B) Prolonged incubation of siastatin B with recombinant human heparanase. 1H NMR spectra were taken before and after prolonged incubation with 1.2 µM of recombinant human heparanase. The x-axis of […]
as §3

[6] = fluorogenic substrate MU-GlcUA, McIllvane buffer pH 5.0, competitive inhibition model, read-out: AcGH79 Ki
[7] = 500 µM MU-GlcUA, 0–400 µM siastatin B, pH 5.0

| SMILES | Ki [1] [µM] | Ki [2, 6] [µM] | IC50 [3] [µM] | IC50 [4] [µM] | Ki ([2]; MU-GlcUA substrate, read-out: inhibition constant for AcGH79) [µM] | stability in aqueous buffer (NMR) ([5]; D2O phosphate buffer 50 mM, 300 mM NaCl, pH 5.0, 18 h) | stability on prolonged incubation with recombinant human heparanase (1H NMR) ([5]; heparanase 1.2 μM) | inhibition of EcGusB by HPLC-purified material compared with commercial siastatin B [1, 7] | inhibition of AcGH79 by HPLC-purified material compared with commercial siastatin B [2, 7] |
| --- | --- | --- | --- | --- | --- | --- | --- | --- | --- |
| O=C(O)[C@H]1CNCC(O)(O)[C@H]1O [compound 8] | 137 ± 3 | 5.8 ± 0.5 | 4 ± 2 | 27 ± 3 | – | – | – | – | – |
| O=C(O)[C@H]1CNCC(O)(O)[C@@H]1O [compound 9] | 28 ± 1 | – | 1.7 ± 0.2 | 200 ± 80 | 0.52 ± 0.03 | – | – | – | – |
| O=C(O)[C@H]1CNC[C@@H](O)[C@H]1O [compound 10, galacturonic acid isofagomine] | 23 ± 3 | 1.5 ± 0.4 | 0.7 ± 0.04 | 8 ± 1 | – | – | – | – | – |
| O=C(O)[C@H]1CNC[C@@H](O)[C@@H]1O [compound 11, glucuronic acid isofagomine] | 1.5 ± 0.3 | 0.022 ± 0.003 | 0.6 ± 0.06 | 80 ± 20 | – | – | – | – | – |
| CC(=O)N[C@H]1NC[C@H](C(=O)O)[C@H](O)[C@@H]1O [siastatin B, Siastatin B] | – | – | – | – | – | no contaminating peaks appeared | very minor additional peaks in the 3.2–3.0 range, with no loss in the starting peaks observed | inhibited less | inhibited less |
